Values of other authors in US7858570B2, “Compositions and methods for removing urushiol and treating the resulting skin condition” (priority 2004, dated 2010).

How the values were obtained:
[1] = tested on: human immuno deficiency virus; conditions: in the test tube
[2] = for cloud point: 1% H2O
[3] = in vivo

| Compound | cloud point [2] | also measured |
| --- | --- | --- |
| NC(=O)NC1NC(=O)NC1=O (centres unmarked) [allantoin, glyoxyl-diureide] |  | solubility in water (at 25° C.): 0.5%; solubility (in words) (water and alcohol): soluble in water and alcohol |
| CCCCCCCCCc1ccc(OCCOCCOCCOCCOCCOCCOCCOCCOCCO)cc1 [nonoxynol-9, nonylphenoxypolyethoxyethanol] |  | concentration in a solution that stops HIV from reproducing [1]: 0.05% |
| nonylphenol ethoxylate [2 mol nonylphenol ethoxylate] | less than 25 °C |  |
| nonylphenol ethoxylate [4 mol nonylphenol ethoxylate] | less than 25 °C |  |
| nonylphenol ethoxylate [5 mol nonylphenol ethoxylate] | less than 25 °C |  |
| nonylphenol ethoxylate [6 mol nonylphenol ethoxylate] | less than 25 °C |  |
| nonylphenol ethoxylate [8 mol nonylphenol ethoxylate] | less than 25 °C |  |
| nonylphenol ethoxylate [10 mol nonylphenol ethoxylate] |  | pH ([2]; 10% sol.): 6.3 |
| nonylphenol ethoxylate [12 mol nonylphenol ethoxylate] | 78-83 °C |  |
| nonylphenol ethoxylate [14 mol nonylphenol ethoxylate] | 92-99 °C |  |
| nonylphenol ethoxylate [30 mol nonylphenol ethoxylate] | greater than 100 °C |  |
| nonylphenol ethoxylate [50 mol nonylphenol ethoxylate] | greater than 100 °C |  |
| urushiol |  | time from skin exposure until rash breaks out [3]: 24 to 72 h |
